# Results reported in patent publication US20150274735A1, “USE OF A TETRASUBSTITUTED PYRAZOLO[4, 3-D]PYRIMIDINE COMPOUND FOR TREATING DIABETIC NEPHROPATHY” (priority 2012, published 2015).
# Entries after “also recorded” stand apart in the source; their conditions may differ.
# What was measured:
# [1] = Single-dose toxicity/toxicokinetic study of polymorph forms in rats; type: in vivo; conditions: equivalent doses 100 and 300 mg/kg
# [2] = Single-dose toxicity/toxicokinetic study of polymorph forms in dogs; type: in vivo; conditions: equivalent dose 100 mg/kg
# rats [3] = assay: Renal - rat, fluid and electrolyte excretion; type: in vivo; conditions: oral, 3, 30, 300 mg/kg
# Source text: (§5) For in vivo studies, the oral route of exposure was used. Rats given diazepam or frusemide served as positive controls in the locomotor activity and fluid/electrolyte excretion studies, respectively. […] Positive controls or animals given positive controls were not assessed concurrently in the remaining studies as these studies utilized well-characterized models to evaluate safety parameters.
# in vitro [4] = conditions: dog, plasma
# [5] = molecular target: PDE6 enzyme (human retinal cone) (Homo sapiens, UniProt P51160); assay: PDE6 enzyme (human retinal cone) inhibition; type: biochemical
# rats [6] = assay: Central nervous system - rat, locomotor activity; type: in vivo; conditions: oral, up to 300 mg/kg
# Source text: as §5
# [7] = tested on: major human cytochrome P450 enzymes; assay: Inhibition of the major human cytochrome P450 enzymes; type: in vitro ADME
# healthy male volunteers = assay: Human tolerability and safety, single and multiple dose clinical studies
# Description: (§1) Both single and multiple dose clinical studies were conducted with an oral solution or suspension ranging from single doses of 0.3 to 400 mg and multiple doses of 30 to 200 mg.
# [8] = tested on: Human Peripheral Lymphocytes; assay: In vitro cytogenetic assay, structural chromosome aberration; type: cell-based; conditions: 100, 350, 500 μg/mL (3 h − S9); 100, 200, 350 μg/mL (3 h + S9); 12.5, 50, 100 μg/mL (24 h − S9)
# Description: (§2) Study designs and dose selection were consistent with International Conference on Harmonization and Organization for Economic Cooperation and Development guidelines for mutagenicity and clastogenicity assays. All in vitro tests were conducted with and without exogenous metabolic activation using concentrations up to those limited by cytotoxicity or insolubility.
# [9] = Excretion of total radioactivity in dogs; type: in vivo, dog
# Description: (§3) For toxicokinetic studies, this method was validated over a concentration range of 10 to 1000 ng/mL for a 50 μL plasma sample. Radiometric methods were used to measure [^14C]
# rats [10] = assay: Pulmonary function - rat, respiratory parameters; type: in vivo; conditions: oral, up to 300 mg/kg
# Source text: as §5
# [11] = molecular target: T1, dog platelet-derived PDE5 (Canis lupus familiaris, UniProt O77746); assay: PDE5 enzyme (dog platelet) inhibition; type: biochemical
# T1 construct: rat and dog platelet-derived PDE5; from tissue; host or cells: dog platelets
# dog Purkinje fiber = assay: Dog Purkinje fiber assay; conditions: up to 10 μM (4.77 μg/mL)
# Source text: (§4) For in vivo studies, the oral route of exposure was used. Rats given diazepam or frusemide served as positive controls in the locomotor activity and fluid/electrolyte excretion studies, respectively. Dofetilide was used for assay validity or a positive control in the dofetilide and hERG assays, respectively. Positive controls or animals given positive controls were not assessed concurrently in the remaining studies as these studies utilized well-characterized models to evaluate safety parameters.
# [12] = Excretion of total radioactivity in rats; type: in vivo, rat
# Description: as §3
# [13] = Tissue distribution study in rats, radio labeled compound; type: in vivo, rat; conditions: radio labeled Example 1
# CYP1A2 = CYP1A2 (Homo sapiens, UniProt P05177); assay: CYP inhibition in human liver microsomes; type: in vitro ADME
# mice = conditions: mouse, in vivo, 14 days
# in vitro [14] = conditions: rabbit, plasma
# [15] = tested on: spontaneously hypertensive rats (SHR); assay: Antihypertensive efficacy in conscious SHR, oral dosing, radiotelemetry; type: in vivo, rat; conditions: for Effect on mean arterial pressure (MAP): 14-day dosing period
# in vitro [16] = conditions: human, plasma
# rats [17] = conditions: rat, in vivo
# [18] = tested on: isolated rat aortic rings; assay: Aortic ring relaxation (rat); conditions: read-out: Aortic ring vasorelaxation EC50
# dogs = assay: Cardiovascular - conscious dogs, hemodynamic and ECG parameters; type: in vivo, dog
# Source text: as §4
# These cardiovascular effects are consistent with cGMP elevation in vascular smooth muscle, resulting from inhibition of cGMP-specific PDE5.
# CYP2C9 = molecular target: T2, CYP2C9 (Homo sapiens, UniProt P11712); assay: CYP inhibition in human liver microsomes; type: in vitro ADME
# T2 construct: was determined in human liver microsomes; from tissue; host or cells: human liver microsomes
# [19] = tested on: Salmonella typhimurium (Strains TA-1535, TA-1537) and Escherichia coli (Strain WP2uvrA); assay: Microbial reverse mutation (mutagenicity); type: cell-based; design: dose or concentration left out as unconfirmed; conditions: (±S9)
# Description: as §2
# CYP2D6 = molecular target: T3, CYP2D6 (Homo sapiens, UniProt P10635); assay: CYP inhibition in human liver microsomes; type: in vitro ADME
# T3 construct: was determined in human liver microsomes; from tissue; host or cells: human liver microsomes
# [20] = molecular target: T4, PDE6 enzyme (human retinal rod) (Homo sapiens, UniProt P16499+P35913); assay: PDE6 enzyme (human retinal rod) inhibition; type: biochemical
# T4 construct: against human retinal cone and rod; from tissue; host or cells: human retina (rod)
# human PDE11 = human PDE11 (Homo sapiens, UniProt Q9HCR9); assay: PDE11 enzyme (human) inhibition; type: biochemical
# in vitro [21] = conditions: rat, plasma
# Rat Bone Marrow = assay: Micronucleus assay in rat bone marrow; type: in vivo; conditions: 100, 300, 600 mg/kg/day
# Description: as §2
# rat PDE5 = molecular target: T5, rat PDE5 (Rattus norvegicus, UniProt O54735); assay: PDE5 enzyme (rat platelet) inhibition; type: biochemical; conditions: rat platelet-derived enzyme
# T5 construct: rat and dog platelet-derived PDE5; from tissue; host or cells: rat platelets
# CYP2C19 = molecular target: T6, CYP2C19 (Homo sapiens, UniProt P33261); assay: CYP inhibition in human liver microsomes; type: in vitro ADME
# T6 construct: was determined in human liver microsomes; from tissue; host or cells: human liver microsomes
# CYP3A4 = CYP3A4 (Homo sapiens, UniProt P08684); assay: CYP inhibition in human liver microsomes; type: in vitro ADME; conditions: probe midazolam, testosterone and felodipine
# clinical = conditions: male, human, in vivo
# Description: as §1, §3
# Pharmacokinetics in rats = type: in vivo, rat
# Description: as §3
# Pharmacokinetics in dogs = type: in vivo, dog
# Description: as §3
# [22] = tested on: Type II diabetic male patients; assay: Microalbuminuria in Type II diabetic patients (FIG. 1); type: in vivo, human; conditions: 50 mg daily for 30 days (n=20), relative to baseline or placebo
# Chain of PDE6 enzyme (human retinal cone) (P51160 whole entry): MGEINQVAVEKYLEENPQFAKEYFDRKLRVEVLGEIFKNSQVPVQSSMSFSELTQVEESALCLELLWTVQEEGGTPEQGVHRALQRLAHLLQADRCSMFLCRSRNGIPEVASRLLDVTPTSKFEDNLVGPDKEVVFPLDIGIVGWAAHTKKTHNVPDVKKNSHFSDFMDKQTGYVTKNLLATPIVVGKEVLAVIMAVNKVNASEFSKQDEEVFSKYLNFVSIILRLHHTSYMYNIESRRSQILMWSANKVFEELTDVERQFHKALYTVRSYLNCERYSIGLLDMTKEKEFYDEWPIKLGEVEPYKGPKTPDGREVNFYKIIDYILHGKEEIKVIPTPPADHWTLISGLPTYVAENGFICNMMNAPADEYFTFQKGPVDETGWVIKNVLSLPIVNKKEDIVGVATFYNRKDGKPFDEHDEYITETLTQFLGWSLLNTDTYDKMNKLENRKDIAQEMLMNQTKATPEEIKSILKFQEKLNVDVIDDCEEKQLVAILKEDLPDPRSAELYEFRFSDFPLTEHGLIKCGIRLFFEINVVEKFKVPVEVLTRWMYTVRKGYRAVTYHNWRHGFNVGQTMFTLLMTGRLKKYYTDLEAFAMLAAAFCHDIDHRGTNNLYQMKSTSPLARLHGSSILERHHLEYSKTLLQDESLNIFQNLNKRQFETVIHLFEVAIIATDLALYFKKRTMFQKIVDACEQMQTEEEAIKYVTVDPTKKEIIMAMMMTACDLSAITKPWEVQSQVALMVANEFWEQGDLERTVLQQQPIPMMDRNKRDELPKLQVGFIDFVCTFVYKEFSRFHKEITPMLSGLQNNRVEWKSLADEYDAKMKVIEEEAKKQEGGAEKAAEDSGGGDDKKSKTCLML
# Chain of CYP1A2 (P05177 whole entry): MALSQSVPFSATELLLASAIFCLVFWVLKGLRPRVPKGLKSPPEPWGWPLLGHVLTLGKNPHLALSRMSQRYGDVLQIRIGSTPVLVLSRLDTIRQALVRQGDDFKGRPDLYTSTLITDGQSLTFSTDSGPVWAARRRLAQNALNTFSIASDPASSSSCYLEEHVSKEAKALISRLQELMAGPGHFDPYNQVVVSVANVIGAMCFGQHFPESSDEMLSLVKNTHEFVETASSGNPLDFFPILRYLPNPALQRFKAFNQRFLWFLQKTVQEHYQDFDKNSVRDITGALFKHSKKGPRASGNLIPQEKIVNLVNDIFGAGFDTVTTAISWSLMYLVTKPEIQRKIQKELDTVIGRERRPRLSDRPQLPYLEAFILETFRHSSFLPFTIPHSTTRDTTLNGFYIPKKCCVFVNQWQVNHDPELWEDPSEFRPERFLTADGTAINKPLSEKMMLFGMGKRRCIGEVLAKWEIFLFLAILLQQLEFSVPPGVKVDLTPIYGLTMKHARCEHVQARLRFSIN
# T6 sequence (P33261 whole entry): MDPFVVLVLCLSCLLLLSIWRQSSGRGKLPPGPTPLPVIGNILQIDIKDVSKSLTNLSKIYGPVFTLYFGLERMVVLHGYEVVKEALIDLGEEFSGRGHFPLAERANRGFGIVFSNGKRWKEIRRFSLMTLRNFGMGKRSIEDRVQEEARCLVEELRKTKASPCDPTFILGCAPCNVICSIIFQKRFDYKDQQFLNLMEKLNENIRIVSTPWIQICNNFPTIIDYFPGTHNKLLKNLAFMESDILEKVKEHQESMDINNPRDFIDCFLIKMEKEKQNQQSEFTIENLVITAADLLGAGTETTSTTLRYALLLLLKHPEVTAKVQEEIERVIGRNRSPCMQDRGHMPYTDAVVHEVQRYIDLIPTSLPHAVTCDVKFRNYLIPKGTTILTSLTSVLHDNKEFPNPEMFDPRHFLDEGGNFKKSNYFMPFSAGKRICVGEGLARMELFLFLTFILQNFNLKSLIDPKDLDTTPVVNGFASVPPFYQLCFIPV
# T3 sequence (P10635 whole entry): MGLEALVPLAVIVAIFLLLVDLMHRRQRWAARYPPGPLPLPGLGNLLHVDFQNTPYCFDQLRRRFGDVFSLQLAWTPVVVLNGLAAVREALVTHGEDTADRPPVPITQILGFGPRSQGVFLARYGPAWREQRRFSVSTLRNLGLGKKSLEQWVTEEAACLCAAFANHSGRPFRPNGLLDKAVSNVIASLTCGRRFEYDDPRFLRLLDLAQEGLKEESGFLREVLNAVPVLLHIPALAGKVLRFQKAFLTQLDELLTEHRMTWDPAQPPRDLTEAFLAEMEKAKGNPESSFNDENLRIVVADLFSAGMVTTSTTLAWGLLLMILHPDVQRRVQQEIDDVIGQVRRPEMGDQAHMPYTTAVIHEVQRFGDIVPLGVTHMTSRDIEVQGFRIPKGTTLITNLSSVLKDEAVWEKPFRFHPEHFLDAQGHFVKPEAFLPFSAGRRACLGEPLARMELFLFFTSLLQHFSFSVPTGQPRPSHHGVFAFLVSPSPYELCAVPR
# Chain of human PDE11 (Q9HCR9 whole entry): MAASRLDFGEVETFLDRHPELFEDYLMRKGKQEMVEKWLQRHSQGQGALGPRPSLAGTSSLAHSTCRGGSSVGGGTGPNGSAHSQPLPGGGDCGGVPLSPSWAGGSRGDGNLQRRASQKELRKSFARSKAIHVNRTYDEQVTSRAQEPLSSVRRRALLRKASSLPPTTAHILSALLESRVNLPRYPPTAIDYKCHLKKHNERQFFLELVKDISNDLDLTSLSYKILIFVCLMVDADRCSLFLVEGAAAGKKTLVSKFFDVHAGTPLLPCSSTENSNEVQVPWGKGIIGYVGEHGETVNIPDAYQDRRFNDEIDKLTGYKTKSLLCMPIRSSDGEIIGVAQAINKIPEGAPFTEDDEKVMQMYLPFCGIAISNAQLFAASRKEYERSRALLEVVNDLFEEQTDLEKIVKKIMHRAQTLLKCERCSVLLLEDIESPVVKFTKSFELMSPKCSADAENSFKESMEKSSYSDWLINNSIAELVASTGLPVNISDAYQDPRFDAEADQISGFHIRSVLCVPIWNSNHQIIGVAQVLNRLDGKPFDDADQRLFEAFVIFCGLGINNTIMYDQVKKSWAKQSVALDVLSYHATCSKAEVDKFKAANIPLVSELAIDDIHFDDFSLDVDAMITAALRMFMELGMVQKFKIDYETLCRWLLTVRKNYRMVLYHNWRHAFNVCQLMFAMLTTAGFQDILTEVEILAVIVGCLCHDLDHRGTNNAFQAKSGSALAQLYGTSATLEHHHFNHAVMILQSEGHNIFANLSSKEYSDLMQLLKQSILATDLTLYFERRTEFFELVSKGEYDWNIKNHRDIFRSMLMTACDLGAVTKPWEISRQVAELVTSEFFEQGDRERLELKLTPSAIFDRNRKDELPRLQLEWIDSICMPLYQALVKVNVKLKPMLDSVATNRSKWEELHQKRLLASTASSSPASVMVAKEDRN
# Chain of CYP3A4 (P08684 whole entry): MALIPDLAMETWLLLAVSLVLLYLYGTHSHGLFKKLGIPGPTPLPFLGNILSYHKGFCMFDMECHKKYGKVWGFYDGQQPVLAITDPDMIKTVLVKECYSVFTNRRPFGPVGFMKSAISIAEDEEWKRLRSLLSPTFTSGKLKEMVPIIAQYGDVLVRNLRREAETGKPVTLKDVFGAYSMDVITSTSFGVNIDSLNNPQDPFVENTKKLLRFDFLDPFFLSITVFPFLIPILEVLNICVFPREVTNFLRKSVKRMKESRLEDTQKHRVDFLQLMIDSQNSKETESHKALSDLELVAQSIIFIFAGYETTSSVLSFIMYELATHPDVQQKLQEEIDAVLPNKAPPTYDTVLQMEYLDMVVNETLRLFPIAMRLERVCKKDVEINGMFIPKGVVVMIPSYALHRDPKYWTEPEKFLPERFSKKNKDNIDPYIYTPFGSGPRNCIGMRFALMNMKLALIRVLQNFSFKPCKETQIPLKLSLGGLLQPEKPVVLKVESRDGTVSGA
# T2 sequence (P11712 whole entry): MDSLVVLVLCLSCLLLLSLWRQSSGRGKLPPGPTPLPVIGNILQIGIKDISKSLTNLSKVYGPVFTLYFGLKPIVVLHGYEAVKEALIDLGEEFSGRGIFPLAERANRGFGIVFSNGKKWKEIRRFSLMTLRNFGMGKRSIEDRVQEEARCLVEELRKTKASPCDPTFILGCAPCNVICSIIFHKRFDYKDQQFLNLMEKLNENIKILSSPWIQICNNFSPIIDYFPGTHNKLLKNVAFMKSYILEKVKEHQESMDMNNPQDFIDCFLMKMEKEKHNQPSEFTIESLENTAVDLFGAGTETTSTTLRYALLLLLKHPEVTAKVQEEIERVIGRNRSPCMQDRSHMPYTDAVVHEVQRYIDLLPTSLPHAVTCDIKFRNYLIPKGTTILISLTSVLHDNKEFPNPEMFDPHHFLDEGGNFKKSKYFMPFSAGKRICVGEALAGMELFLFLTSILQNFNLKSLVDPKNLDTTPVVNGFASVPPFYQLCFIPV
structure (smiles),measurement,setting,value
"CCOCCn1nc(C(=O)NS(C)(=O)=O)c2nc(N(C)CC)nc(Nc3cc(C)ccn3)c21 [Example 1 (polymorph form C), 1-(2-ethoxyethyl)-5-(ethyl(methyl)amino)-7-((4-methylpyridin-2-yl)amino)-N-(methylsulfonyl)-1H-pyrazolo[4,3-d]pyrimidine-3-carboxamide]","Systemic exposure, polymorph form C versus form B",[1],no differences in systemic exposure
same,"Systemic exposure, polymorph form C versus form B",[2],no differences in systemic exposure
"CCOCCn1nc(C(=O)NS(C)(=O)=O)c2nc(N(C)CC)nc(Nc3cc(C)ccn3)c21 [Example 1, 1-(2-ethoxyethyl)-5-(ethyl(methyl)amino)-7-((4-methylpyridin-2-yl)amino)-N-(methylsulfonyl)-1H-pyrazolo[4,3-d]pyrimidine-3-carboxamide]",Effect on urine volume and electrolyte excretion,rats [3],dose-related decrease
same,fraction unbound,in vitro [4],0.007
same,IC50,[5],0.0289 µM
same,Effects on locomotor activity,rats [6],"minor, nondose-related effects consisting of decreased rearing and center rearing"
same,Inhibition of the major human cytochrome P450 enzymes,[7],no significant inhibition
same,"Changes in vital signs, ECGs, laboratory safety test results, or physical examination results","healthy male volunteers; healthy male volunteers, any dose",No significant changes
same,Tolerability of multiple doses,"healthy male volunteers; human, in vivo",well tolerated
same,Tolerability of single doses,"healthy male volunteers; human, in vivo, po",well tolerated
same,Effects on ECG parameters,"healthy male volunteers; humans, single and multiple doses",No clinically-relevant effects
same,"Clastogenicity in vitro, structural chromosome aberration result",[8],Negative
same,Administered dose (total radioactivity) eliminated in feces,[9],greater than 80%
same,Time within which the majority of the radioactivity was recovered,[9],≤ 48 h
same,Total radioactivity recovered,[9],greater than 92%
same,Effects on pulmonary function,rats [10],no adverse effects
same,IC50,[11],0.00065 µM
same,Effects in dog Purkinje fiber assay,dog Purkinje fiber,No relevant effects
same,Administered dose (total radioactivity) eliminated in feces,[12],greater than 80%
same,Time within which the majority of the radioactivity was recovered,[12],≤ 48 h
same,Total radioactivity recovered,[12],greater than 92%
same,Tissue distribution,[13],systemic distribution was generally in proportion to tissue-blood flow
same,IC50,CYP1A2,> 30 µM
same,Maximum non-lethal dose,mice,2000 mg/kg
same,fraction unbound,in vitro [14],0.012
same,Effect on mean arterial pressure (MAP),[15],"significant, sustained reduction in MAP"
same,Effect on MAP in combination,[15]; combined with an ACE inhibitor,greater MAP lowering effects than the ACE inhibitor alone
same,"Free plasma concentration giving significant MAP reduction, as multiple of rat PDE5 IC50",[15]; daily oral dosing,approximately 7 fold
same,ECmax (maximally efficacious concentration),"[15]; oral dosing, unbound plasma concentration",ECmax = 6.5 nM
same,fraction unbound,in vitro [16],0.007
same,Single dose toxicity findings,rats [17],No toxicity was observed
same,Maximum non-lethal dose,rats [17]; 14 days,2000 mg/kg
same,EC50,[18],0.0031 µM
same,Effects on ECG parameters,dogs; dogs,not associated with any relevant effects
same,Effect on blood pressure and left ventricular end-diastolic pressure,"dogs; dogs, 0.5, 1.5, and 5 mg/kg","small, but significant reductions"
same,IC50,CYP2C9,> 30 µM
same,Mutagenicity result,[19],Negative
same,IC50,CYP2D6,> 30 µM
same,IC50,[20],0.0636 µM
same,IC50,human PDE11,0.0263 µM
same,fraction unbound,in vitro [21],0.007
same,Micronucleus assay in rat bone marrow result,Rat Bone Marrow,Negative
same,IC50,rat PDE5,0.00093 µM
same,IC50,CYP2C19,> 30 µM
same,IC50,CYP3A4,> 30 µM
same,Cmax,clinical; 30 mg,1.57 to 1.63 µg/mL
same,half-life,clinical; Human Half-life,11.9 to 15.7 h
same,half-life,clinical; Terminal half-life,11.9 to 15.7 h
same,Steady-state distribution volume,Pharmacokinetics in rats; rat,lower than total body water
same,bioavailability,"Pharmacokinetics in rats; rat, plasma, po, rats, single dose, read-out: Absolute oral bioavailability",82%
same,Half-life (in words),Pharmacokinetics in rats; rats,long half-life values
same,Oral bioavailability (in words),Pharmacokinetics in rats; rats,high
same,Plasma clearance,"Pharmacokinetics in rats; rats, intravenous administration",low clearance; also recorded: lower that the liver-blood flow
same,Steady-state distribution volume,Pharmacokinetics in dogs; dog,lower than total body water
same,bioavailability,"Pharmacokinetics in dogs; dog, plasma, po, dogs, single dose, read-out: Absolute oral bioavailability",77%
same,Cmax,"Pharmacokinetics in dogs; dog, plasma, dogs, 5 mg/kg oral",12.8 µg/mL
same,Half-life (in words),Pharmacokinetics in dogs; dogs,long half-life values
same,Oral bioavailability (in words),Pharmacokinetics in dogs; dogs,high
same,Dog Cmax as multiple of human Cmax,Pharmacokinetics in dogs; dogs 5 mg/kg versus humans 30 mg dose,~8 times
same,Plasma clearance,"Pharmacokinetics in dogs; dogs, intravenous administration",low clearance; also recorded: lower that the liver-blood flow
"CCCc1nn(C)c2c(=O)[nH]c(-c3cc(S(=O)(=O)N4CCN(C)CC4)ccc3OCC)nc12 [Sildenafil, sildenafil]",Microalbuminuria / albuminuria,[22],reduces albuminuria
same,Microalbuminuria / albuminuria,[22]; listed as sildenafil citrate,significantly decreased
same,half-life,clinical; Human Half-life,3.7 h
"CCOC(=O)[C@H](CCc1ccccc1)N[C@@H](C)C(=O)N1CCC[C@H]1C(=O)O [enalapril, reference compound]",Effect on mean arterial pressure (MAP),[15],"significant, sustained reduction in MAP"
